Reference: ChEMBL document CHEMBL4043145, “Pyridine-pyrimidine amides that prevent HGF-induced epithelial scattering by two distinct mechanisms” (Bioorg Med Chem Lett, 2017)

How the values were obtained:
Type in all cases: functional
MFE-296 [1] = test: Induction of apoptosis in human MFE296 cells assessed as nuclear debris at 1000 nM by 7-AAD/Annexin staining-based assay (reference value: 0.4 to 0.8%)
MCF7 [2] = test: Induction of apoptosis in human MCF7 cells assessed as early apoptotic cells at 1000 nM by 7-AAD/Annexin staining-based assay (reference value: 2 to 2.7%)
A2780 [3] = test: Induction of apoptosis in human A2780 cells assessed as late apoptotic cells at 100 nM by 7-AAD/Annexin staining-based assay (reference value: 1.2 to 2.2%)
MCF7 [4] = test: Induction of apoptosis in human MCF7 cells assessed as viable cells at 1000 nM by 7-AAD/Annexin staining-based assay (reference value: 92.6 to 96.8%); conditions: read-out: Activity
A2780 [5] = test: Induction of apoptosis in human A2780 cells assessed as early apoptotic cells at 300 nM by 7-AAD/Annexin staining-based assay (reference value: 1.7 to 2.1%)
MFE-296 [6] = test: Induction of apoptosis in human MFE296 cells assessed as early apoptotic cells at 300 nM by 7-AAD/Annexin staining-based assay (reference value: 1.5 to 2.1%)
T47D [7] = test: Induction of apoptosis in human T47D cells assessed as viable cells at 300 nM by 7-AAD/Annexin staining-based assay (reference value: 74.5 to 94.5%); conditions: read-out: Activity
PC-3 [8] = test: Induction of apoptosis in human p53-null PC3 cells assessed as nuclear debris at 100 nM by 7-AAD/Annexin staining-based assay (reference value: 0.1 to 0.5%)
T47D [9] = test: Induction of apoptosis in human T47D cells assessed as nuclear debris at 1000 nM by 7-AAD/Annexin staining-based assay (reference value: 0.2 to 7.7%)
A2780 [10] = test: Induction of apoptosis in human A2780 cells assessed as viable cells at 300 nM by 7-AAD/Annexin staining-based assay (reference value: 95 to 96.7%); conditions: read-out: Activity
T47D [11] = test: Induction of apoptosis in human T47D cells assessed as viable cells at 100 nM by 7-AAD/Annexin staining-based assay (reference value: 74.5 to 94.5%); conditions: read-out: Activity
A2780 [12] = test: Induction of apoptosis in human A2780 cells assessed as nuclear debris at 1000 nM by 7-AAD/Annexin staining-based assay (reference value: 0.3 to 1.1%)
MFE-296 [13] = test: Induction of apoptosis in human MFE296 cells assessed as viable cells at 300 nM by 7-AAD/Annexin staining-based assay (reference value: 90.9 to 94.4%); conditions: read-out: Activity
T47D [14] = test: Induction of apoptosis in human T47D cells assessed as early apoptotic cells at 1000 nM by 7-AAD/Annexin staining-based assay (reference value: 1.6 to 4.3%)
PC-3 [15] = test: Induction of apoptosis in human p53-null PC3 cells assessed as viable cells at 100 nM by 7-AAD/Annexin staining-based assay (reference value: 96.5 to 98.6%); conditions: read-out: Activity
A2780 [16] = test: Induction of apoptosis in human A2780 cells assessed as early apoptotic cells at 1000 nM by 7-AAD/Annexin staining-based assay (reference value: 1.7 to 2.1%)
MFE-296 [17] = test: Induction of apoptosis in human MFE296 cells assessed as viable cells at 100 nM by 7-AAD/Annexin staining-based assay (reference value: 90.9 to 94.4%); conditions: read-out: Activity
A2780 [18] = test: Induction of apoptosis in human A2780 cells assessed as early apoptotic cells at 100 nM by 7-AAD/Annexin staining-based assay (reference value: 1.7 to 2.1%)
T47D [19] = test: Induction of apoptosis in human T47D cells assessed as early apoptotic cells at 100 nM by 7-AAD/Annexin staining-based assay (reference value: 1.6 to 4.3%)
MCF7 [20] = test: Induction of apoptosis in human MCF7 cells assessed as nuclear debris at 300 nM by 7-AAD/Annexin staining-based assay (reference value: 0.2 to 3%)
MFE-296 [21] = test: Induction of apoptosis in human MFE296 cells assessed as viable cells at 1000 nM by 7-AAD/Annexin staining-based assay (reference value: 90.9 to 94.4%); conditions: read-out: Activity
T47D [22] = test: Induction of apoptosis in human T47D cells assessed as late apoptotic cells at 100 nM by 7-AAD/Annexin staining-based assay (reference value: 3 to 13.4%)
MCF7 [23] = test: Induction of apoptosis in human MCF7 cells assessed as nuclear debris at 100 nM by 7-AAD/Annexin staining-based assay (reference value: 0.2 to 3%)
PC-3 [24] = test: Induction of apoptosis in human p53-null PC3 cells assessed as early apoptotic cells at 100 nM by 7-AAD/Annexin staining-based assay (reference value: 0.6 to 1.4%)
MFE-296 [25] = test: Induction of apoptosis in human MFE296 cells assessed as late apoptotic cells at 300 nM by 7-AAD/Annexin staining-based assay (reference value: 3.6 to 6.6%)
MCF7 [26] = test: Induction of apoptosis in human MCF7 cells assessed as late apoptotic cells at 100 nM by 7-AAD/Annexin staining-based assay (reference value: 1 to 2.1%)
PC-3 [27] = test: Induction of apoptosis in human p53-null PC3 cells assessed as late apoptotic cells at 300 nM by 7-AAD/Annexin staining-based assay (reference value: 0.4 to 1.6%)
T47D [28] = test: Induction of apoptosis in human T47D cells assessed as late apoptotic cells at 300 nM by 7-AAD/Annexin staining-based assay (reference value: 3 to 13.4%)
T47D [29] = test: Induction of apoptosis in human T47D cells assessed as nuclear debris at 100 nM by 7-AAD/Annexin staining-based assay (reference value: 0.2 to 7.7%)
PC-3 [30] = test: Induction of apoptosis in human p53-null PC3 cells assessed as nuclear debris at 300 nM by 7-AAD/Annexin staining-based assay (reference value: 0.1 to 0.5%)
MFE-280 [31] = test: Induction of apoptosis in human MFE280 cells assessed as nuclear debris at 1000 nM by 7-AAD/Annexin staining-based assay (reference value: 0.5 to 2.3%)
MCF7 [32] = test: Induction of apoptosis in human MCF7 cells assessed as early apoptotic cells at 100 nM by 7-AAD/Annexin staining-based assay (reference value: 2 to 2.7%)
T47D [33] = test: Induction of apoptosis in human T47D cells assessed as early apoptotic cells at 300 nM by 7-AAD/Annexin staining-based assay (reference value: 1.6 to 4.3%)
MFE-280 [34] = test: Induction of apoptosis in human MFE280 cells assessed as viable cells at 100 nM by 7-AAD/Annexin staining-based assay (reference value: 84.9 to 87.7%); conditions: read-out: Activity
MFE-296 [35] = test: Induction of apoptosis in human MFE296 cells assessed as early apoptotic cells at 100 nM by 7-AAD/Annexin staining-based assay (reference value: 1.5 to 2.1%)

CN[C@@H]1C[C@H]2O[C@@](C)([C@@H]1OC)n1c3ccccc3c3c4c(c5c6ccccc6n2c5c31)C(=O)NC4 [STAUROSPORINE]
Activity (MFE-296 [1]): 15.1%
Activity (MCF7 [2]): 3.5%
Activity (A2780 [3]): 3.7%
viability at 1 µM (MCF7 [4]): 62.1%
Activity (A2780 [5]): 3.4%
Activity (MFE-296 [6]): 6.8%
viability at 0.3 µM (T47D [7]): 90.6%
Activity (PC-3 [8]): 0.1%
Activity (T47D [9]): 0.6%
viability at 0.3 µM (A2780 [10]): 87.1%
viability at 0.1 µM (T47D [11]): 95%
Activity (A2780 [12]): 4.3%
viability at 0.3 µM (MFE-296 [13]): 57.2%
Activity (T47D [14]): 6.2%
viability at 0.1 µM (PC-3 [15]): 98%
Activity (A2780 [16]): 5.1%
viability at 0.1 µM (MFE-296 [17]): 83.6%
Activity (A2780 [18]): 5.4%
Activity (T47D [19]): 2.5%
Activity (MCF7 [20]): 1.1%
viability at 1 µM (MFE-296 [21]): 20.2%
Activity (T47D [22]): 2.4%
Activity (MCF7 [23]): 0.6%
Activity (PC-3 [24]): 1.2%
Activity (MFE-296 [25]): 24.4%
Activity (MCF7 [26]): 3.1%
Activity (PC-3 [27]): 0.2%
Activity (T47D [28]): 3.5%
Activity (T47D [29]): 0.1%
Activity (PC-3 [30]): 0.1%
Activity (MFE-280 [31]): 3.1%
Activity (MCF7 [32]): 3.4%
Activity (T47D [33]): 5.5%
viability at 0.1 µM (MFE-280 [34]): 51.1%
Activity (MFE-296 [35]): 7.5%

O=C(Nc1ccc(-c2cccc(Cl)c2)cn1)c1cncnc1
Activity (MFE-296 [1]): 2.9%
Activity (MCF7 [2]): 3.3%
Activity (A2780 [3]): 3.2%
viability at 1 µM (MCF7 [4]): 94%
Activity (A2780 [5]): 3.5%
Activity (MFE-296 [6]): 2.8%
viability at 0.3 µM (T47D [7]): 86.5%
Activity (PC-3 [8]): 0.1%
Activity (T47D [9]): 0.6%
viability at 0.3 µM (A2780 [10]): 92.1%
viability at 0.1 µM (T47D [11]): 92.4%
Activity (A2780 [12]): 1.4%
viability at 0.3 µM (MFE-296 [13]): 86.5%
Activity (T47D [14]): 12%
viability at 0.1 µM (PC-3 [15]): 98.9%
Activity (A2780 [16]): 4.5%
viability at 0.1 µM (MFE-296 [17]): 90.9%
Activity (A2780 [18]): 3.6%
Activity (T47D [19]): 5.1%
Activity (MCF7 [20]): 0.5%
viability at 1 µM (MFE-296 [21]): 84.3%
Activity (T47D [22]): 2.3%
Activity (MCF7 [23]): 0.4%
Activity (PC-3 [24]): 0.6%
Activity (MFE-296 [25]): 8.2%
Activity (MCF7 [26]): 1.9%
Activity (PC-3 [27]): 0.8%
Activity (T47D [28]): 3.8%
Activity (T47D [29]): 0.2%
Activity (PC-3 [30]): 0.2%
Activity (MFE-280 [31]): 0.7%
Activity (MCF7 [32]): 3.3%
Activity (T47D [33]): 9.5%
viability at 0.1 µM (MFE-280 [34]): 86.2%
Activity (MFE-296 [35]): 2.1%
